# Assay results taken from patent US12077483B2, “Modified amine lipids” (Intellia Therapeutics, Inc., priority 2018, dated 2024).
# Assays:
# mouse TTR gene = assay: In vivo editing in mouse liver, LNP with Cas9 mRNA and sgRNA G282, NGS; conditions: for Mean % Indel: Table 5
# Procedure: (§1) LNPs were prepared using various amine lipids in a 4-component lipid system consisting of an ionizable lipid (e.g. an amine lipid), DSPC, cholesterol and PEG-2k-DMG. In assays for percent liver editing in mice, Cas9 mRNA and chemically modified sgRNA targeting a mouse sequence were formulated in LNPs, at either a 1:1 w/w ratio or a 1:2 w/w ratio.
# (§2) The lipid components were dissolved in 100% ethanol with the lipid component molar ratios described below. The chemically modified sgRNA and Cas9 mRNA were combined and dissolved in 25 mM citrate, 100 mM NaCl, pH 5.0, resulting in a concentration of total RNA cargo of approximately 0.45 mg/mL. The LNPs were formulated with an N/P ratio of about 6, with the ratio of chemically modified sgRNA: Cas9 mRNA at either a 1:1 or 1:2 w/w ratio as described below.
# (§3) CD-1 female mice, ranging from 6-10 weeks of age were used in each study. Animals were weighed and grouped according to body weight for preparing dosing solutions based on group average weight. LNPs were dosed via the lateral tail vein in a volume of 0.2 mL per animal (approximately 10 mL per kilogram body weight). The animals were periodically observed for adverse effects for at least 24 hours post dose.
# (§4) For studies measuring in vivo editing in liver, CD-1 female mice were dosed at 0.1 mpk unless otherwise noted. Animals were euthanized at 6 or 7 days by exsanguinationvia cardiac puncture under isoflourane anesthesia. Liver tissue was collected from each animal for DNA extraction and analysis. Blood was collected into serum separator tubes or into tubes containing buffered sodium citrate for plasma as described herein. Cohorts of mice were measured for editing by Next-Generation Sequencing (NGS).
# (§5) In brief, to quantitatively determine the efficiency of editing at the target location in the genome, genomic DNA was isolated and deep sequencing was utilized to identify the presence of insertions and deletions introduced by gene editing.
# (§6) PCR primers were designed around the target site (e.g., B2M), and the genomic area of interest was amplified. Additional PCR was performed according to the manufacturer's protocols (Illumina) to add the necessary chemistry for sequencing. The amplicons were sequenced on an Illumina MiSeq instrument. The reads were aligned to the relevant reference genome (e.g., GRCm38) after eliminating those having low quality scores. The resulting files containing the reads were mapped to the reference genome (BAM files), where reads that overlapped the target region of interest were selected and the number of wild type reads versus the number of reads which contain an insertion, substitution, or deletion was calculated.
# (§7) The editing percentage (e.g., the “editing efficiency” or “percent editing”) is defined as the total number of sequence reads with insertions or deletions over the total number of sequence reads, including wild type.
# (§8) We assessed in vivo editing efficiency for materials delivered with formulations including various amine lipid compounds. Editing was measured using either G282 (SEQ ID No: 1) which targets the mouse TTR gene or G650 (SEQ ID No. 2) which targets the mouse B2M gene. Lipids described above were assessed for efficacy through in vivo editing experiments. LNPs were formulated at a 1:1 w/w ratio of sgRNA to Cas9 mRNA, and at an N/P ratio of about 6. Molar concentrations of lipids in the lipid component of the LNPs are expressed as mol % amine lipid/DSPC/cholesterol/PEG-2k-DMG, e.g. 50/10/38.5/1.5. The final LNPs were characterized to determine the encapsulation efficiency, polydispersity index, and average particle size according to the analytical methods provided above. Analysis of average particle size, polydispersity (PDI), total RNA content and encapsulation efficiency of RNA are shown in Table 2.
# To assess whether the editing was dose responsive, experiments were performed in vivo at various LNP dose levels. […]
# mouse B2M gene = assay: In vivo editing in mouse liver, LNP with Cas9 mRNA and sgRNA G650, NGS; conditions: Table 3; guide G650; CD-1 female mice, 0.1 mpk i.v., liver at 6 or 7 days; Exp. 2-7
# Procedure: as §1, §2, §3, §4, §5, §6, §7, §8
# rat TTR [1] = assay: In vivo editing in rat liver, LNP with Cas9 mRNA and sgRNA G534, NGS; conditions: Table 11, Sprague Dawley female rats i.v., liver 6-7 days post dose
# Procedure: as §5, §6, §7
# To assess lipid efficacy, dose response experiments were performed in vivo. Cas9 mRNA of Example 115 was formulated as LNPs with a gRNA targeting TTR (G00534; SEQ ID NO: 5). These LNPs were formulated, prepared and analyzed as described in Example 115 using a 1:2 w/w ratio of a sgRNA and Cas9 mRNA. Composition analysis for these LNPs are described in Table 10.
# For efficacy, Sprague Dawley female rats were dosed i.v. at 0.1 mpk or 0.03 mpk. 6-7 days post dose, rats were euthanized by CO2 asphyxiation. Blood was collected into serum separator tubes. Liver biopsy processed for gDNA and assessed for editing by NGS methods described in Example 115. Results are shown in Table 11 and FIGS. 12A and 12B. For tolerability, Sprague Dawley female rats were dosed at 6 mpk and 24 hours post dose the animals were euthanized by CO2 asphyxiation. Blood was collected into serum separator tubes and sent to an external CRO for quantitation of liver enzymes via a liver enzyme panel.
# rat TTR [2] = assay: Serum TTR levels in rats after LNP delivery; assay type: in vivo; conditions: Table 11, G534, Sprague Dawley female rats i.v.
# TTR in HUH7 cells = assay: In vitro editing in HUH7 cells, LNP with Cas9 mRNA and sgRNA G000502, NGS; assay type: cell-based, human; conditions: Table 14; 2000 ng RNA per well, cells harvested 6 hours post-transfection, biological duplicate, G000502 target locus
# Procedure: A series of compounds based on Compound 46 that vary by the inclusion of a C4-12 alkyl at the R^3 position of Formula (IA) (as illustrated in FIG. 13A) were tested for in vitro editing. The human hepatocellular carcinoma cell line […] (Japanese Collection of Research Bioresources Cell Bank, Cat. JCRB0403) was cultured in DMEM media supplemented with 10% fetal bovine serum and 1% Penicillin-Streptomycin. Cells were plated at a density of 20,000 cells/well in a 96-well plate 24 hours prior to transfection (˜80% confluent at time of transfection). The LNPs were formulated at a 1:2 w/w ratio of sgRNA and Cas9 mRNA using the cross flow procedure with lipid molar compositions as described in Table 13 at an N/P ratio of 6.0. LNP compositions were analyzed for average particle size, polydispersity (pdi), total RNA content and encapsulation efficiency of RNA as described in Example 115. Analysis of average particle size, polydispersity (PDI), total RNA content and encapsulation efficiency of RNA are shown in Table 13. LNPs were diluted into media, incubated for 5 minutes at 37 C and pipetted onto cells at a dose of 2000 ng RNA per well. Each condition was assayed in biological duplicate. Cells were harvested post-transfection at 6 hours. Genomic DNA was extracted using 50 μL/well BuccalAmp DNA Extraction solution (Epicentre, Cat. QE09050) according to manufacturer's protocol. All DNA samples were subjected to PCR and subsequent NGS analysis for editing at the G000502 target locus, as described above. As shown in Table 14 and FIG. 13B, all compounds tested were efficacious for in vitro editing.
# [3] = Table 3, guide G282, CD-1 female mice, 0.1 mpk i.v., liver at 6 or 7 days, Exp. 1, 8, 9, 10
# [4] = G00282, CD-1 female mice i.v., dose 0.1 mpk, liver
# [5] = G00282, CD-1 female mice i.v., dose 0.3 mpk, liver
smiles,measurement,setting,value
"CCCCC/C=C\C/C=C\CCCCCCCC(=O)OCC(COC(=O)CCCCCCC/C=C\C/C=C\CCCCC)OC(=O)CCC(CCCCCCCCCCCC)OC(=O)OCCCN(C)C (stereo not drawn) [Compound 1, 2-((4-(((3-(dimethylamino)propoxy)carbonyl)oxy)hexadecanoyl)oxy)propane-1,3-diyl (9Z,9′Z,12Z,12′Z)-bis(octadeca-9,12-dienoate)]",Editing Mean % Indel,mouse TTR gene; [3],13.1%
"CCCCC/C=C\C/C=C\CCCCCCCC(=O)OCC(COC(=O)CCCCCCC/C=C\C/C=C\CCCCC)OC(=O)CCC(CCCCCCCCCCCC)OC(=O)OCCCN1CCCC1 (stereo not drawn) [Compound 5, 2-((4-(((3-(pyrrolidin-1-yl)propoxy)carbonyl)oxy)hexadecanoyl)oxy)propane-1,3-diyl (9Z,9′Z,12Z,12′Z)-bis(octadeca-9,12-dienoate)]",Editing Mean % Indel,"mouse TTR gene; Table 7, G00282, CD-1 female mice i.v., dose 0.1 mpk, liver",26.1%
same,Editing Mean % Indel,"mouse TTR gene; Table 7, G00282, CD-1 female mice i.v., dose 0.3 mpk, liver",52.5%
same,efficacy for in vivo editing (in words),"mouse TTR gene; mouse liver, Examples 116 and 118",efficacious
same,Editing Mean % Indel,mouse B2M gene,17.5%
"CCCCC/C=C\C/C=C\CCCCCCCC(=O)OCC(COC(=O)CCCCCCC/C=C\C/C=C\CCCCC)OC(=O)CCC(CCCCCCCCCCCC)OC(=O)NCCN(C)CC (stereo not drawn) [Compound 7, 2-((4-(((2-(ethyl(methyl)amino)ethyl)carbamoyl)oxy)hexadecanoyl)oxy)propane-1,3-diyl (9Z,9′Z,12Z,12′Z)-bis(octadeca-9,12-dienoate)]",Mean % Indel,mouse TTR gene; [4],49.1%
same,Mean % Indel,mouse TTR gene; [5],69.4%
same,Editing Mean % Indel,mouse B2M gene,22.6%
"CCCCC/C=C\C/C=C\CCCCCCCC(=O)OCC(COC(=O)CCCCCCC/C=C\C/C=C\CCCCC)OC(=O)CCC(CCCCCCCCCCCC)OC(=O)NCC1CCCN1C (stereo not drawn) [Compound 9, 2-((4-((((1-methylpyrrolidin-2-yl)methyl)carbamoyl)oxy)hexadecanoyl)oxy) propane-1,3-diyl (9Z,9′Z,12Z,12′Z)-bis(octadeca-9,12-dienoate)]",Editing Mean % Indel,mouse TTR gene; [3],44.1%
same,Mean % Indel,mouse TTR gene; [4],50.6%
same,Mean % Indel,mouse TTR gene; [5],64.5%
same,Editing Mean % Indel,mouse B2M gene,20.3%
"CCCCC/C=C\C/C=C\CCCCCCCC(=O)OCC(COC(=O)CCCCCCC/C=C\C/C=C\CCCCC)OC(=O)CCC(CCCCCCCC)OC(=O)NCC1CCCN1C (stereo not drawn) [Compound 35, 2-((4-((((1-methylpyrrolidin-2-yl)methyl)carbamoyl)oxy)dodecanoyl)oxy) propane-1,3-diyl (9Z,9′Z,12Z,12′Z)-bis(octadeca-9,12-dienoate)]",Editing Mean % Indel,mouse B2M gene,35.5%
"CCCCC/C=C\C/C=C\CCCCCCCC(=O)OCC(COC(=O)CCCCCCC/C=C\C/C=C\CCCCC)OC(=O)CCC(CCCCCCCC)OC(=O)OCCCN1CCCC1 (stereo not drawn) [Compound 36, 2-((4-(((3-(pyrrolidin-1-yl)propoxy)carbonyl)oxy)dodecanoyl)oxy)propane-1,3-diyl (9Z,9′Z,12Z,12′Z)-bis(octadeca-9,12-dienoate)]",Editing Mean % Indel,mouse B2M gene,30.0%
"CCCCC/C=C\C/C=C\CCCCCCCC(=O)OCC(COC(=O)CCCCCCC/C=C\C/C=C\CCCCC)OC(=O)CCC(CCCCCCCCCC)OC(=O)NCCN(C)CC (stereo not drawn) [Compound 39, 2-((4-(((2-(ethyl(methyl)amino)ethyl)carbamoyl)oxy)tetradecanoyl)oxy)propane-1,3-diyl (9Z,9′Z,12Z,12′Z)-bis(octadeca-9,12-dienoate)]",Editing Mean % Indel,mouse TTR gene; [3],36.5%
"CCCCC/C=C\C/C=C\CCCCCCCC(=O)OCC(COC(=O)CCCCCCC/C=C\C/C=C\CCCCC)OC(=O)CCC(CCCCCC)OC(=O)NCCN(C)CC (stereo not drawn) [Compound 40, 2-((4-(((2-(ethyl(methyl)amino)ethyl)carbamoyl)oxy)decanoyl)oxy)propane-1,3-diyl (9Z,9′Z,12Z,12′Z)-bis(octadeca-9,12-dienoate)]",Editing Mean % Indel,mouse TTR gene; [3],44.7%
"CCCCC/C=C\C/C=C\CCCCCCCC(=O)OCC(COC(=O)CCCCCCC/C=C\C/C=C\CCCCC)OC(=O)CCC(CCCCCC)OC(=O)OCCCN1CCCC1 (stereo not drawn) [Compound 45, 2-((4-(((3-(pyrrolidin-1-yl)propoxy)carbonyl)oxy)decanoyl)oxy)propane-1,3-diyl (9Z,9′Z,12Z,12′Z)-bis(octadeca-9,12-dienoate)]",Editing % Editing,rat TTR [1]; dose 0.03 mpk,10.76%
same,Editing % Editing,rat TTR [1]; dose 0.1 mpk,48.16%
same,Serum TTR,rat TTR [2]; dose 0.03 mpk,910.4 µg/mL
same,Serum TTR % TSS,rat TTR [2]; dose 0.03 mpk,110% TSS
same,Serum TTR,rat TTR [2]; dose 0.1 mpk,270.7 µg/mL
same,Serum TTR % TSS,rat TTR [2]; dose 0.1 mpk,32% TSS
"CCCCC/C=C\C/C=C\CCCCCCCC(=O)OCC(COC(=O)CCCCCCC/C=C\C/C=C\CCCCC)OC(=O)CCC(CCCCCCCC)OC(=O)NCCN1CCCC1 (stereo not drawn) [Compound 51, 2-((4-(((2-(pyrrolidin-1-yl)ethyl)carbamoyl)oxy)dodecanoyl)oxy)propane-1,3-diyl (9Z,9′Z,12Z,12′Z)-bis(octadeca-9,12-dienoate)]",Editing,TTR in HUH7 cells,69.0%
"CCCCC/C=C\C/C=C\CCCCCCCC(=O)OCC(COC(=O)CCCCCCC/C=C\C/C=C\CCCCC)OC(=O)CCC(CCCCC)OC(=O)NCCN1CCCC1 (stereo not drawn) [Compound 72, 2-((4-(((2-(pyrrolidin-1l-yl)ethyl)carbamoyl)oxy)nonanoyl)oxy)propane-1,3-diyl (9Z,9′Z,12Z,12′Z)-bis(octadeca-9,12-dienoate)]",Editing,TTR in HUH7 cells,65.8%
